Source: ChEMBL document CHEMBL1138436, “Biological activity and chemistry of taxoids from the Japanese yew, Taxus cuspidata” (J Nat Prod, 2004)
≈ marks a conversion by molar mass, not a printed value.

Tests used:
[1] = tested on: KB; experiment: Cytotoxicity against human KB cells; format: functional, cell-based
[2] = Growth inhibition of human HBC5 cells; format: functional; conditions: for CC50: read-out: LC50 (the source's name)
[3] = tested on: MDA-MB-231; experiment: Growth inhibition of human MDA-MB-231 cells; format: functional
[4] = tested on: SF-268; experiment: Growth inhibition of human SF268 cells; format: functional
[5] = tested on: HCC 2998; experiment: Growth inhibition of human HCC2998 cells; format: functional; conditions: for CC50: read-out: LC50 (the source's name)
[6] = tested on: NCI-H226; experiment: Growth inhibition of human NCI-H226 cells; format: functional
[7] = tested on: NCI-H460; experiment: Growth inhibition of human NCI-H460 cells; format: functional
[8] = tested on: LOX IMVI; experiment: Growth inhibition of human LOXIMVI cells; format: functional; conditions: for CC50: read-out: LC50 (the source's name)
[9] = tested on: OVCAR-8; experiment: Growth inhibition of human OVCAR8 cells; format: functional
[10] = tested on: SK-OV-3; experiment: Growth inhibition of human SKOV3 cells; format: functional
[11] = tested on: MKN-28; experiment: Growth inhibition of human MKN28 cells; format: functional
[12] = tested on: DU-145; experiment: Growth inhibition of human DU145 cells; format: functional
[13] = read-out: LC50 (the source's name)
[14] = read-out: pLC50 (the source's name) (converted)

Compound: CC(=O)O[C@H]1C[C@H]2OC[C@@]2(OC(C)=O)[C@H]2[C@H](OC(=O)c3ccccc3)[C@]3(O)C[C@H](O)C(C)=C([C@@H](O)[C@H](O)[C@]12C)C3(C)C [TAXUSPINE E]
- IC50 [1]: 0.08 µg/mL (≈ 0.136 µM)
- GI50 ([2]; read-out: GI50): 25 µM
- CC50 [2]: > 100 µM
- TGI ([2]; read-out: TGI): > 100 µM
- GI50 ([2]; read-out: pGI50 (converted)): 25.1 µM
- TGI ([2]; read-out: pTGI (converted)): 100 µM
- GI50 ([3]; read-out: GI50): 18 µM
- CC50 [3, 13]: > 100 µM
- GI50 ([3]; read-out: pGI50 (converted)): 18.2 µM
- CC50 [3, 14]: 100 µM
- TGI ([3]; read-out: pTGI (converted)): 100 µM
- TGI [4]: > 100 µM
- GI50 ([4]; read-out: GI50): 74 µM
- CC50 [4, 13]: > 100 µM
- GI50 ([4]; read-out: pGI50 (converted)): 74.1 µM
- CC50 [4, 14]: 100 µM
- TGI [5]: > 100 µM
- GI50 ([5]; read-out: GI50): 27 µM
- CC50 [5]: > 100 µM
- GI50 ([5]; read-out: pGI50 (converted)): 27.5 µM
- GI50 ([6]; read-out: GI50): 32 µM
- CC50 [6, 13]: > 100 µM
- TGI ([6]; read-out: TGI): > 100 µM
- GI50 ([6]; read-out: pGI50 (converted)): 32.4 µM
- CC50 [6, 14]: 100 µM
- TGI ([6]; read-out: pTGI (converted)): 100 µM
- GI50 ([7]; read-out: GI50): 36 µM
- TGI ([7]; read-out: TGI): > 100 µM
- GI50 ([7]; read-out: pGI50 (converted)): 35.5 µM
- TGI ([7]; read-out: pTGI (converted)): 100 µM
- GI50 ([8]; read-out: GI50): 35 µM
- CC50 [8]: > 100 µM
- TGI ([8]; read-out: TGI): > 100 µM
- GI50 ([8]; read-out: pGI50 (converted)): 34.7 µM
- TGI ([8]; read-out: pTGI (converted)): 100 µM
- GI50 ([9]; read-out: GI50): 37 µM
- CC50 [9, 13]: > 100 µM
- TGI ([9]; read-out: TGI): 100 µM
- GI50 ([9]; read-out: pGI50 (converted)): 37.2 µM
- CC50 [9, 14]: 100 µM
- TGI ([9]; read-out: pTGI (converted)): 100 µM
- GI50 ([10]; read-out: GI50): 68 µM
- CC50 [10, 13]: > 100 µM
- TGI ([10]; read-out: TGI): 100 µM
- GI50 ([10]; read-out: pGI50 (converted)): 69.2 µM
- CC50 [10, 14]: 100 µM
- TGI ([10]; read-out: pTGI (converted)): 100 µM
- GI50 ([11]; read-out: GI50): 31 µM
- CC50 [11, 13]: > 100 µM
- TGI ([11]; read-out: TGI): > 100 µM
- GI50 ([11]; read-out: pGI50 (converted)): 30.9 µM
- CC50 [11, 14]: 100 µM
- TGI ([11]; read-out: pTGI (converted)): 100 µM
- TGI [12]: > 100 µM
- GI50 ([12]; read-out: GI50): 33 µM
- CC50 [12, 13]: > 100 µM
- GI50 ([12]; read-out: pGI50 (converted)): 32.4 µM
- CC50 [12, 14]: 100 µM

Compound: C=C1[C@@H](OC(=O)/C=C/c2ccccc2)C[C@H](OC(C)=O)[C@]2(C)[C@@H]1C[C@]1(C(C)(C)O)C[C@H](OC(C)=O)C(C)=C1[C@@H](OC(=O)c1ccccc1)[C@@H]2OC(C)=O [TAXUSPINE A]
- GI50 ([2]; read-out: GI50): 100 µM
- CC50 [2]: > 100 µM
- TGI ([2]; read-out: TGI): > 100 µM
- GI50 ([2]; read-out: pGI50 (converted)): 25.1 µM
- TGI ([2]; read-out: pTGI (converted)): 100 µM
- GI50 ([3]; read-out: GI50): 16 µM
- CC50 [3, 13]: > 100 µM
- TGI ([3]; read-out: TGI): > 100 µM
- GI50 ([3]; read-out: pGI50 (converted)): 16.2 µM
- CC50 [3, 14]: 100 µM
- TGI ([3]; read-out: pTGI (converted)): 100 µM
- TGI [4]: > 100 µM
- GI50 ([4]; read-out: GI50): 43 µM
- CC50 [4, 13]: > 100 µM
- GI50 ([4]; read-out: pGI50 (converted)): 42.7 µM
- CC50 [4, 14]: 100 µM
- TGI [5]: > 100 µM
- GI50 ([5]; read-out: GI50): 26 µM
- CC50 [5]: > 100 µM
- GI50 ([5]; read-out: pGI50 (converted)): 26.3 µM
- GI50 ([6]; read-out: GI50): 21 µM
- CC50 [6, 13]: > 100 µM
- TGI ([6]; read-out: TGI): > 100 µM
- GI50 ([6]; read-out: pGI50 (converted)): 83.2 µM
- CC50 [6, 14]: 100 µM
- TGI ([6]; read-out: pTGI (converted)): 100 µM
- GI50 ([7]; read-out: GI50): 44 µM
- CC50 [7, 13]: > 100 µM
- TGI ([7]; read-out: TGI): > 100 µM
- GI50 ([7]; read-out: pGI50 (converted)): 43.7 µM
- TGI ([7]; read-out: pTGI (converted)): 100 µM
- GI50 ([8]; read-out: GI50): 38 µM
- CC50 [8]: > 100 µM
- TGI ([8]; read-out: TGI): > 100 µM
- GI50 ([8]; read-out: pGI50 (converted)): 38 µM
- TGI ([8]; read-out: pTGI (converted)): 100 µM
- GI50 ([9]; read-out: GI50): 100 µM
- CC50 [9, 13]: > 100 µM
- TGI ([9]; read-out: TGI): > 100 µM
- GI50 ([9]; read-out: pGI50 (converted)): 100 µM
- CC50 [9, 14]: 100 µM
- TGI ([9]; read-out: pTGI (converted)): 100 µM
- GI50 ([10]; read-out: GI50): 100 µM
- CC50 [10, 13]: > 100 µM
- TGI ([10]; read-out: TGI): > 100 µM
- GI50 ([10]; read-out: pGI50 (converted)): 100 µM
- CC50 [10, 14]: 100 µM
- TGI ([10]; read-out: pTGI (converted)): 100 µM
- GI50 ([11]; read-out: GI50): 12 µM
- CC50 [11, 13]: > 100 µM
- TGI ([11]; read-out: TGI): > 100 µM
- GI50 ([11]; read-out: pGI50 (converted)): 11.7 µM
- CC50 [11, 14]: 100 µM
- TGI ([11]; read-out: pTGI (converted)): 100 µM
- TGI [12]: > 100 µM
- GI50 ([12]; read-out: GI50): 100 µM
- CC50 [12, 13]: > 100 µM
- GI50 ([12]; read-out: pGI50 (converted)): 100 µM
- CC50 [12, 14]: 100 µM
